Source: US10660877B2 (BRISTOL-MYERS SQUIBB COMPANY, priority 2016, dated 2020)
Where two headings read alike, the source gives them in different places.

Legend:
human TLR8 = human TLR8 (Homo sapiens (Human), UniProt Q9NR97); assay: TLR8 inhibition reporter assay (HEK-Blue cells, SEAP reporter, R848 stimulation);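 also: compounds tested from 0.05 nM to 50 µM, 22 h at 37 °C, SEAP measured with HEK-Blue Detection, inhibition relative to agonist plus DMSO versus a known inhibitor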
human TLR9 = human TLR9 (Homo sapiens (Human), UniProt Q9NR96); assay: TLR9 inhibition reporter assay (HEK-Blue cells, SEAP reporter, ODN2006 stimulation);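 also: compounds tested over 0.05 nM to 50 µM, 22 h incubation, inhibition taken as SEAP signal drop from agonist plus DMSO wells toward a known inhibitor control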
human TLR7 = human TLR7 (Homo sapiens (Human), UniProt Q9NYK1); assay: TLR7 inhibition reporter assay (HEK-Blue cells, SEAP reporter, gardiquimod stimulation); format: cell-based
[1] = read-out: TLR8 IC50, HEK-Blue cells overexpressing human TLR8, R848 15.9 μM
[2] = read-out: TLR9 IC50, HEK-Blue cells overexpressing human TLR9, ODN2006 5 nM
[3] = HEK-Blue cells overexpressing human TLR7, gardiquimod 7.5 μM

Sequence of human TLR8 (Q9NR97 27-1041): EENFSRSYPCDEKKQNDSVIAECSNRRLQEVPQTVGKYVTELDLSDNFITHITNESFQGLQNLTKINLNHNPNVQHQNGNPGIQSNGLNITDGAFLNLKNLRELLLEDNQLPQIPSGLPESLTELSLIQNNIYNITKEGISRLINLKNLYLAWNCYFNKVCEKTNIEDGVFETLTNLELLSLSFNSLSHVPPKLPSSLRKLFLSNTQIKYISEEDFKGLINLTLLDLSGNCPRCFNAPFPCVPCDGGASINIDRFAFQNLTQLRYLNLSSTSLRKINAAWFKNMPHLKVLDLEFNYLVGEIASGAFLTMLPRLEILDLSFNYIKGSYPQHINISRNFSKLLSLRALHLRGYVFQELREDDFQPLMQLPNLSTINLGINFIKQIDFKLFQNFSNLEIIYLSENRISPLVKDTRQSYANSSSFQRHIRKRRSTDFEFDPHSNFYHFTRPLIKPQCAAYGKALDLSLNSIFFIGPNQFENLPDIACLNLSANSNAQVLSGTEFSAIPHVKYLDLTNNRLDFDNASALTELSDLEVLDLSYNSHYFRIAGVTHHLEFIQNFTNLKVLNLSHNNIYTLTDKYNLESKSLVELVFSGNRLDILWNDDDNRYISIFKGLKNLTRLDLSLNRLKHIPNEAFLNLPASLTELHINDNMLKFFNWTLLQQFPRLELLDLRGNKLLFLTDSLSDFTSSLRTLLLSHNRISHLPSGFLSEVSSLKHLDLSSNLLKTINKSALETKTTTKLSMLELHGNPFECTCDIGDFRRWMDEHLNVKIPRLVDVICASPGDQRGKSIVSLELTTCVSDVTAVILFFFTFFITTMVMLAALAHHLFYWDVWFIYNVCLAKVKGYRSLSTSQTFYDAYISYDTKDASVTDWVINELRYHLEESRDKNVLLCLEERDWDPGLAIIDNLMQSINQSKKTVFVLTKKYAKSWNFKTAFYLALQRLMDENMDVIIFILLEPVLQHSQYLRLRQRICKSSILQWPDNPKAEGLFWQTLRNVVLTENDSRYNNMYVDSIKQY
Sequence of human TLR7 (Q9NYK1 27-1049): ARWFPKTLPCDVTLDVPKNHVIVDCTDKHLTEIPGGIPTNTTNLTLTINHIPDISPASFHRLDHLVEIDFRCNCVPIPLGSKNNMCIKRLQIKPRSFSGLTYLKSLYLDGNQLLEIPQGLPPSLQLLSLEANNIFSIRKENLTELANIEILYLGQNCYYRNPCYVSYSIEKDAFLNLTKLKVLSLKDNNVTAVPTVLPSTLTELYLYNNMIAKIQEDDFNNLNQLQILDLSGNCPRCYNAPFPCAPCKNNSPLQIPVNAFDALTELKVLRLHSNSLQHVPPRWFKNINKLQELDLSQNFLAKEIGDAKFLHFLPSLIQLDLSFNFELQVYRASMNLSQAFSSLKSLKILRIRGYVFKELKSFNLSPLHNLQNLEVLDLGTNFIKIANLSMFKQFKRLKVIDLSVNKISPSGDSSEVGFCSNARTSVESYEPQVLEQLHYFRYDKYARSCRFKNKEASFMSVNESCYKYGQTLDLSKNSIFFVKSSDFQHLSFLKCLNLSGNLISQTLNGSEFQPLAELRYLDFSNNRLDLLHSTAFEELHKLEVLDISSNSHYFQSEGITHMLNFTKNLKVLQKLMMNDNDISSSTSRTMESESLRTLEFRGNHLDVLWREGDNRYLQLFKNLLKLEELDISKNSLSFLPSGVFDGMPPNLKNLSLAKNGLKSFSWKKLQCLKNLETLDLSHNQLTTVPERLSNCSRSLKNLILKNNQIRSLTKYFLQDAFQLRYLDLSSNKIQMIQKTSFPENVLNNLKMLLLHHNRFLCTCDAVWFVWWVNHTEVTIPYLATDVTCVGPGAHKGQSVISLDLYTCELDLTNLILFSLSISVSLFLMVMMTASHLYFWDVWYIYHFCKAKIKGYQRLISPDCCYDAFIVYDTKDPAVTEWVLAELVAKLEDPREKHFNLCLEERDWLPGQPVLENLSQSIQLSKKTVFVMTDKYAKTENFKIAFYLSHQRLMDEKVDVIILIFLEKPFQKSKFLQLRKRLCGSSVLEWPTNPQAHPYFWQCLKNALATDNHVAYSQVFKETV
Sequence of human TLR9 (Q9NR96 26-1032): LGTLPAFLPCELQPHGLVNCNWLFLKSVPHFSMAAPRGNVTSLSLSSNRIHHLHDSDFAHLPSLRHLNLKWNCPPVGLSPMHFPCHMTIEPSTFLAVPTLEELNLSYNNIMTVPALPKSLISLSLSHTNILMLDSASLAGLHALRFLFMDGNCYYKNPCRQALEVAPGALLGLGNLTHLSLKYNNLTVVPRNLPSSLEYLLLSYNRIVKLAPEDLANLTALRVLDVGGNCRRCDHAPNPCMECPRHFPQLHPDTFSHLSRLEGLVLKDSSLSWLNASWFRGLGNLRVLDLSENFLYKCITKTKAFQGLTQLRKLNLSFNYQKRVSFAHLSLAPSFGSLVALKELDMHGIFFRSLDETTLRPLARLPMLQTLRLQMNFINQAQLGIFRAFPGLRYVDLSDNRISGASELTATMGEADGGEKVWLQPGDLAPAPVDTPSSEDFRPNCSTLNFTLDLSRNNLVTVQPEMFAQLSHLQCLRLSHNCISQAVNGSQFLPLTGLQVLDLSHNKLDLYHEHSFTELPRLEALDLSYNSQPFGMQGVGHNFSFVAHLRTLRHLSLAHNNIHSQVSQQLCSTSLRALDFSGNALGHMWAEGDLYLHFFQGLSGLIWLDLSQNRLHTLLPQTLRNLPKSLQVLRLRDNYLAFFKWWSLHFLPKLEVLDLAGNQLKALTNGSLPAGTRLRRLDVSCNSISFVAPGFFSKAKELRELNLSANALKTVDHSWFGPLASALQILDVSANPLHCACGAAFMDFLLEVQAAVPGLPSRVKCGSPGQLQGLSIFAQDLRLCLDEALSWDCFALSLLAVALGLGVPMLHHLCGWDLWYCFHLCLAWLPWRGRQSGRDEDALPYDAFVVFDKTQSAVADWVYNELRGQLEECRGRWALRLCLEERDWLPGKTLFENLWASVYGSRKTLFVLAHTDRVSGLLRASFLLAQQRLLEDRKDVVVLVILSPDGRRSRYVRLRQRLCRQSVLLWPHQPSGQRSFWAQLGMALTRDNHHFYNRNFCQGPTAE

| Structure (SMILES) | IC50 (human TLR8; [1]) [nM] | IC50 (human TLR9; [2]) [nM] | IC50 (human TLR7; [3]) [nM] | IC50 (human TLR8; read-out: TLR8 IC50, HEK-Blue cells, R848 15.9 μM) [nM] | IC50 (human TLR9; read-out: TLR9 IC50, HEK-Blue cells, ODN2006 5 nM) [nM] | IC50 (human TLR7; HEK-Blue cells, gardiquimod 7.5 μM) [nM] |
| --- | --- | --- | --- | --- | --- | --- |
| Cc1cc(-c2[nH]c3ccc(C4CCN(Cc5nncn5C)CC4)cc3c2C(C)C)cc(C)n1 [Example 464, 2-(2,6-dimethylpyridin-4-yl)-3-isopropyl-5-(1-((4-methyl-4H-1,2,4-triazol-3-yl)methyl)piperidin-4-yl)-1H-indole] | 6.3 | 2560 | 6.3 | – | – | – |
| Cc1cc(-c2[nH]c3ccc(C4CCN(Cc5ncco5)CC4)cc3c2C(C)C)c(C)cn1 [Example 699, 2-((4-(2-(2,5-dimethylpyridin-4-yl)-3-isopropyl-1H-indol-5-yl)piperidin-1-yl)methyl)oxazole] | 4.2 | 40300 | 38.7 | – | – | – |
| Cc1cc(-c2[nH]c3ccc(C4CCN(CC(=O)NC5CCOCC5)CC4)cc3c2C(C)C)cc(C)n1 [Example 280, 2-(4-(2-(2,6-dimethylpyridin-4-yl)-3-isopropyl-1H-indol-5-yl)piperidin-1-yl)-N-(tetrahydro-2H-pyran-4-yl)acetamide] | 6.1 | 350 | 3 | – | – | – |
| CCc1c(-c2ccnc(OC)c2)[nH]c2ccc(C3CCN(C4CCN(CC)CC4)CC3)cc12 [Example 792, 3-ethyl-5-(1′-ethyl-[1,4′-bipiperidin]-4-yl)-2-(2-methoxypyridin-4-yl)-1H-indole] | 84.9 | 686 | 304 | – | – | – |
| Cc1cc(-c2[nH]c3ccc(C4CCN(C(=O)C5CCCO5)CC4)cc3c2C(C)C)cc(C)n1 (stereo not drawn) [Example 103, (4-(2-(2,6-dimethylpyridin-4-yl)-3-isopropyl-1H-indol-5-yl)piperidin-1-yl)(tetrahydrofuran-2-yl)methanone] | 80.8 | 27700 | 8.6 | – | – | – |
| CNCC(=O)N1CCC(c2ccc3[nH]c(-c4ccnc(C)c4)c(C(C)C)c3c2)CC1 [Example 510, 1-(4-(3-isopropyl-2-(2-methylpyridin-4-yl)-1H-indol-5-yl)piperidin-1-yl)-2-(methylamino)ethan-1-one] | 8.6 | 695 | 8.8 | – | – | – |
| Cc1cc(-c2[nH]c3ccc(C4CCN(CC5COC5)CC4)cc3c2C(C)C)c(F)cn1 [Example 646, 2-(5-fluoro-2-methylpyridin-4-yl)-3-isopropyl-5-(1-(oxetan-3-ylmethyl)piperidin-4-yl)-1H-indole] | 4.8 | 5850 | 12 | – | – | – |
| Cc1cc(-c2[nH]c3ccc(C4CCN(CC5CC5)CC4)cc3c2C(C)C)cc(C)n1 [Example 474, 5-(1-(cyclopropylmethyl)piperidin-4-yl)-2-(2,6-dimethylpyridin-4-yl)-3-isopropyl-1H-indole] | 3.2 | 506 | 2.5 | – | – | – |
| CC(C)c1c(-c2ccncc2F)[nH]c2ccc(C3CCNCC3)cc12 [Example 7, 2-(3-fluoropyridin-4-yl)-3-isopropyl-5-(piperidin-4-yl)-1H-indole] | 195 | 3540 | 590 | – | – | – |
| CCC(O)CN1CCC(c2ccc3[nH]c(-c4ccnc(C)c4)c(C(C)C)c3c2)CC1 (stereo not drawn) [Example 664, 1-(4-(3-isopropyl-2-(2-methylpyridin-4-yl)-1H-indol-5-yl)piperidin-1-yl)butan-2-ol] | 4.5 | 1570 | 10.2 | – | – | – |
| Cc1cc(-c2[nH]c3ccc(C4CCN(C(=O)C(C)(C)N)CC4)cc3c2C(C)C)cc(C)n1 [Example 194, 2-amino-1-(4-(2-(2,6-dimethylpyridin-4-yl)-3-isopropyl-1H-indol-5-yl)piperidin-1-yl)-2-methylpropan-1-one] | 9.3 | 213 | 0.6 | – | – | – |
| Cc1cc(-c2[nH]c3ccc(C4CCN(CC(=O)NCCC(C)C)CC4)cc3c2C(C)C)cc(C)n1 [Example 237, 2-(4-(2-(2,6-dimethylpyridin-4-yl)-3-isopropyl-1H-indol-5-yl)piperidin-1-yl)-N-isopentylacetamide] | 51.1 | 1890 | 24.9 | – | – | – |
| Cc1cc(-c2[nH]c3ccc(C4CCN(CC(=O)N(CCO)Cc5ccccc5)CC4)cc3c2C(C)C)cc(C)n1 [Example 293, N-benzyl-2-(4-(2-(2,6-dimethylpyridin-4-yl)-3-isopropyl-1H-indol-5-yl)piperidin-1-yl)-N-(2-hydroxyethyl)acetamide] | 72.2 | 711 | 22.8 | – | – | – |
| Cc1cc(-c2[nH]c3ccc(C4CCN(C5CCOCC5)CC4)cc3c2C(C)C)c(C)cn1 [Example 714, 2-(2,5-dimethylpyridin-4-yl)-3-isopropyl-5-(1-(tetrahydro-2H-pyran-4-yl)piperidin-4-yl)-1H-indole] | 2.7 | 2210 | 31.4 | – | – | – |
| Cc1cc(-c2[nH]c3ccc(C4CCN(CC(O)C(C)(C)C)CC4)cc3c2C(C)C)cc(C)n1 (stereo not drawn) [Example 850, 1-(4-(2-(2,6-dimethylpyridin-4-yl)-3-isopropyl-1H-indol-5-yl)piperidin-1-yl)-3,3-dimethylbutan-2-ol] | – | – | – | 4.7 | 312 | 3.8 |
| CC(=O)N1CCC(c2ccc3[nH]c(-c4cc(C)nc(C5CC5)c4)c(C(C)C)c3c2)CC1 [Example 504, 1-(4-(2-(2-cyclopropyl-6-methylpyridin-4-yl)-3-isopropyl-1H-indol-5-yl)piperidin-1-yl)ethan-1-one] | 638 | 33900 | 64.2 | – | – | – |
| Cc1cc(-c2[nH]c3ccc(C4CCN(C(=O)CN(C(C)C)C(C)C)CC4)cc3c2C(C)C)cc(C)n1 [Example 153, 2-(diisopropylamino)-1-(4-(2-(2,6-dimethylpyridin-4-yl)-3-isopropyl-1H-indol-5-yl)piperidin-1-yl)ethan-1-one] | 26 | 675 | 9.9 | – | – | – |
| Cc1cc(-c2[nH]c3ccc(C4CCN(C(=O)CN(C)CCC#N)CC4)cc3c2C(C)C)c(F)cn1 [Example 679, 3-((2-(4-(2-(5-fluoro-2-methylpyridin-4-yl)-3-isopropyl-1H-indol-5-yl)piperidin-1-yl)-2-oxoethyl)(methyl)amino)propanenitrile] | 19.8 | 4380 | 12.7 | – | – | – |
| Cc1cc(-c2[nH]c3ccc(C4CCN(C(=O)CN5CCCC(C)C5)CC4)cc3c2C(C)C)cc(C)n1 (stereo not drawn) [Example 378, 1-(4-(2-(2,6-dimethylpyridin-4-yl)-3-isopropyl-1H-indol-5-yl)piperidin-1-yl)-2-(3-methylpiperidin-1-yl)ethan-1-one] | 11.8 | 389 | 1.7 | – | – | – |
| CCc1c(-c2cc(C)nc(C)c2)[nH]c2ccc(C3CCN(C(=O)C4CC(=O)N(C)C4)CC3)cc12 (stereo not drawn) [Example 530, 4-(4-(2-(2,6-dimethylpyridin-4-yl)-3-ethyl-1H-indol-5-yl)piperidine-1-carbonyl)-1-methylpyrrolidin-2-one] | 398 | 5270 | 52.2 | – | – | – |
| Cc1cc(-c2[nH]c3ccc(C4CCN(C(=O)CN(C)C)CC4)cc3c2C(C)C)c(F)c(C)n1 [Example 588, 2-(dimethylamino)-1-(4-(2-(3-fluoro-2,6-dimethylpyridin-4-yl)-3-isopropyl-1H-indol-5-yl)piperidin-1-yl)ethan-1-one] | 1.3 | 845 | 0.5 | – | – | – |
| Cc1cc(-c2[nH]c3ccc(C4CCNCC4)cc3c2C(C)(C)C)cc(C)n1 [Example 96, 3-(tert-butyl)-2-(2,6-dimethylpyridin-4-yl)-5-(piperidin-4-yl)-1H-indole] | 23.3 | 1320 | 9.1 | – | – | – |
